From BindingDB's records for doi:10.1021/jm990281p (Parke-Davis Pharmaceutical Research, 2000)

Legend:
[1] = biological target: T1, Dimer of Gag-Pol polyprotein [489-587] (Human immunodeficiency virus 1, UniProt P12497); assay: Protease Inhibition Assay
T1 construct: 489-587
Description: (§1) Sensitivity of HIV-1 protease activity to protease inhibitors was determined by a peptide substrate cleavage assay. Protease products were analyzed on a reverse-phase high-pressure liquid chromatograph.

[2] = biological target: T2, Gag-Pol polyprotein [489-587] (Human immunodeficiency virus 1, UniProt P04585); assay: Protease Inhibition Assay
T2 construct: 489-587
Description: as §1

Cc1cc(SC2C(=O)CC(CCc3ccccc3)(C(C)C)OC2=O)c(C(C)(C)C)cc1NS(=O)(=O)c1cccnc1 (configuration not stated)
IC50 [1]: 3.5 nM | IC50 [2]: 3.5 nM

CCNS(=O)(=O)Oc1cc(C(C)(C)C)c(SC2C(=O)CC(CCc3ccccc3)(C(C)C)OC2=O)cc1C (configuration not stated)
IC50 [2]: 8.9 nM

Cc1cc(SC2C(=O)CC(CCc3ccc(O)cc3)(C3CCCCC3)OC2=O)c(C(C)(C)C)cc1OS(=O)(=O)Cn1ccnc1 (configuration not stated)
IC50 [2]: 8 nM

Cc1cc(SC2C(=O)CC(C)(CCc3ccc(O)cc3)OC2=O)c(C(C)(C)C)cc1OS(=O)(=O)Cn1ccnc1 (configuration not stated)
IC50 [2]: 2 nM

Cc1cc(SC2C(=O)CC(CCc3ccc(O)cc3)(C(C)C)OC2=O)c(C(C)(C)C)cc1OS(=O)(=O)Cn1ccnc1 (configuration not stated)
IC50 [2]: 2.4 nM

Cc1cc(SC2C(=O)CC(CCc3ccccc3)(C(C)C)OC2=O)c(C(C)(C)C)cc1OS(=O)(=O)Cn1ccnc1 (configuration not stated)
IC50 [2]: 3 nM

Cc1cc(SC2C(=O)CC(C)(CCc3ccc(O)cc3)OC2=O)c(C(C)(C)C)cc1NS(=O)(=O)Cn1ccnc1 (configuration not stated)
IC50 [2]: 1.9 nM

Cc1cc(SC2C(=O)CC(CCc3ccc(N)cc3)(C(C)C)OC2=O)c(C(C)(C)C)cc1OS(=O)(=O)c1cccs1 (configuration not stated)
IC50 [2]: 18.5 nM

CCCC1(CCc2ccc(O)cc2)CC(=O)C(Sc2cc(C)c(OS(=O)(=O)Cn3ccnc3)cc2C(C)(C)C)C(=O)O1 (configuration not stated)
IC50 [2]: 2.2 nM

Cc1cc(SC2C(=O)CC(CCc3ccc(O)cc3)(CC(C)C)OC2=O)c(C(C)(C)C)cc1OS(=O)(=O)Cn1ccnc1 (configuration not stated)
IC50 [2]: 3.6 nM

Cc1cc(SC2C(=O)CC(CCc3ccccc3)(C(C)C)OC2=O)c(C(C)(C)C)cc1NS(=O)(=O)Cn1ccnc1 (configuration not stated)
IC50 [2]: 1.9 nM

Cc1cc(SC2C(=O)CC(C)(CCc3ccc(O)cc3)OC2=O)c(C(C)(C)C)cc1NS(=O)(=O)c1ccc(-c2cccs2)cc1 (configuration not stated)
IC50 [2]: 6.3 nM

Cc1cc(SC2C(=O)CC(CCc3ccc(N)cc3)(C(C)C)OC2=O)c(C(C)(C)C)cc1OS(=O)(=O)Cn1ccnc1 (configuration not stated)
IC50 [2]: 2.2 nM

Cc1cc(SC2C(=O)CC(CCc3ccc(N)cc3)(C(C)C)OC2=O)c(C(C)(C)C)cc1OS(=O)(=O)c1cccnc1 (configuration not stated)
IC50 [2]: 4.1 nM

Cc1cc(SC2C(=O)CC(CCc3ccc(N)cc3)(C(C)C)OC2=O)c(C(C)(C)C)cc1OS(=O)(=O)c1nccn1C (configuration not stated) [4-({6-[2-(4-aminophenyl)ethyl]-4-hydroxy-2-oxo-6-(propan-2-yl)-5,6-dihydro-2H-pyran-3-yl}sulfanyl)-5-tert-butyl-2-methylphenyl 1-methyl-1H-imidazole-2-sulfonate]
IC50 [1]: 2.2 nM

Cc1cc(SC2C(=O)CC(CCc3ccc(N)cc3)(C(C)C)OC2=O)c(C(C)(C)C)cc1OS(=O)(=O)c1ccccc1-c1cccs1 (configuration not stated) [4-({6-[2-(4-aminophenyl)ethyl]-4-hydroxy-2-oxo-6-(propan-2-yl)-5,6-dihydro-2H-pyran-3-yl}sulfanyl)-5-tert-butyl-2-methylphenyl 2-(thiophen-2-yl)benzene-1-sulfonate]
IC50 [1]: 18.5 nM

Cc1cc(SC2C(=O)CC(CCc3ccc(N)cc3)(C(C)C)OC2=O)c(C(C)(C)C)cc1OS(=O)(=O)c1cccc(-c2cccnc2)c1 (configuration not stated) [4-({6-[2-(4-aminophenyl)ethyl]-4-hydroxy-2-oxo-6-(propan-2-yl)-5,6-dihydro-2H-pyran-3-yl}sulfanyl)-5-tert-butyl-2-methylphenyl 3-(pyridin-3-yl)benzene-1-sulfonate]
IC50 [1]: 4.1 nM

Cc1cc(SC2C(=O)CC(CCc3ccc(N)cc3)(C(C)C)OC2=O)c(C(C)(C)C)cc1OS(=O)(=O)N(C)C (configuration not stated) [4-({6-[2-(4-aminophenyl)ethyl]-4-hydroxy-2-oxo-6-(propan-2-yl)-5,6-dihydro-2H-pyran-3-yl}sulfanyl)-5-tert-butyl-2-methylphenyl N,N-dimethylsulfamate]
IC50 [2]: 3.9 nM

CCNS(=O)(=O)Oc1cc(C(C)(C)C)c(SC2C(=O)CC(CCc3ccc(N)cc3)(C(C)C)OC2=O)cc1C (configuration not stated) [4-({6-[2-(4-aminophenyl)ethyl]-4-hydroxy-2-oxo-6-(propan-2-yl)-5,6-dihydro-2H-pyran-3-yl}sulfanyl)-5-tert-butyl-2-methylphenyl N-ethylsulfamate]
IC50 [2]: 4.3 nM

Cc1cc(SC2C(=O)CC(CCc3ccc(O)cc3)(C(C)C)OC2=O)c(C(C)(C)C)cc1OS(=O)(=O)c1nccn1C (configuration not stated) [5-tert-butyl-4-({4-hydroxy-6-[2-(4-hydroxyphenyl)ethyl]-2-oxo-6-(propan-2-yl)-5,6-dihydro-2H-pyran-3-yl}sulfanyl)-2-methylphenyl 1-methyl-1H-imidazole-2-sulfonate]
IC50 [1]: 2.4 nM

Cc1cc(SC2C(=O)CC(CCc3ccc(O)cc3)(C(C)C)OC2=O)c(C(C)(C)C)cc1OS(C)(=O)=O (configuration not stated) [5-tert-butyl-4-({4-hydroxy-6-[2-(4-hydroxyphenyl)ethyl]-2-oxo-6-(propan-2-yl)-5,6-dihydro-2H-pyran-3-yl}sulfanyl)-2-methylphenyl methanesulfonate]
IC50 [1]: 2.2 nM

CCCC1(CCc2ccc(O)cc2)CC(=O)C(Sc2cc(C)c(OS(=O)(=O)c3nccn3C)cc2C(C)(C)C)C(=O)O1 (configuration not stated) [5-tert-butyl-4-({4-hydroxy-6-[2-(4-hydroxyphenyl)ethyl]-2-oxo-6-propyl-5,6-dihydro-2H-pyran-3-yl}sulfanyl)-2-methylphenyl 1-methyl-1H-imidazole-2-sulfonate]
IC50 [1]: 2.2 nM

Cc1cc(SC2C(=O)CC(CCc3ccc(O)cc3)(CC(C)C)OC2=O)c(C(C)(C)C)cc1OS(=O)(=O)c1nccn1C (configuration not stated) [5-tert-butyl-4-({4-hydroxy-6-[2-(4-hydroxyphenyl)ethyl]-6-(2-methylpropyl)-2-oxo-5,6-dihydro-2H-pyran-3-yl}sulfanyl)-2-methylphenyl 1-methyl-1H-imidazole-2-sulfonate]
IC50 [1]: 3.6 nM

Cc1cc(SC2C(=O)CC(C)(CCc3ccc(O)cc3)OC2=O)c(C(C)(C)C)cc1OS(=O)(=O)c1nccn1C (configuration not stated) [5-tert-butyl-4-({4-hydroxy-6-[2-(4-hydroxyphenyl)ethyl]-6-methyl-2-oxo-5,6-dihydro-2H-pyran-3-yl}sulfanyl)-2-methylphenyl 1-methyl-1H-imidazole-2-sulfonate]
IC50 [1]: 2 nM

Cc1cc(SC2C(=O)CC(CCc3ccc(O)cc3)(C3CCCCC3)OC2=O)c(C(C)(C)C)cc1OS(=O)(=O)c1nccn1C (configuration not stated) [5-tert-butyl-4-({6-cyclohexyl-4-hydroxy-6-[2-(4-hydroxyphenyl)ethyl]-2-oxo-5,6-dihydro-2H-pyran-3-yl}sulfanyl)-2-methylphenyl 1-methyl-1H-imidazole-2-sulfonate]
IC50 [1]: 8 nM

Cc1cc(SC2C(=O)CC(CCc3ccccc3)(C(C)C)OC2=O)c(C(C)(C)C)cc1OS(=O)(=O)c1nccn1C (configuration not stated) [5-tert-butyl-4-{[4-hydroxy-2-oxo-6-(2-phenylethyl)-6-(propan-2-yl)-5,6-dihydro-2H-pyran-3-yl]sulfanyl}-2-methylphenyl 1-methyl-1H-imidazole-2-sulfonate]
IC50 [1]: 3 nM

CCNS(=O)(=O)Oc1cc(C(C)(C)C)c(SC2C(=O)CC(CCc3ccc(O)cc3)(C(C)C)OC2=O)cc1C (configuration not stated) [6-Alkyl-5,6-Dihydropyran-2-one 20]
IC50 [2]: 4.9 nM

Cc1cc(SC2C(=O)CC(CCc3ccc(O)cc3)(C(C)C)OC2=O)c(C(C)(C)C)cc1OS(=O)(=O)N(C)C (configuration not stated) [6-Alkyl-5,6-Dihydropyran-2-one 22]
IC50 [2]: 3.4 nM

Cc1cc(SC2C(=O)C[C@](CCc3ccc(O)cc3)(C(C)C)OC2=O)c(C(C)(C)C)cc1N (stereo partly drawn) [(6R)-3-[(4-amino-2-tert-butyl-5-methylphenyl)sulfanyl]-4-hydroxy-6-[2-(4-hydroxyphenyl)ethyl]-6-(propan-2-yl)-5,6-dihydro-2H-pyran-2-one]
Ki [1]: 13 nM

Cc1cc(SC2C(=O)CC(CCc3ccccc3)(C(C)C)OC2=O)c(C(C)(C)C)cc1NS(=O)(=O)c1nccn1C (configuration not stated) [N-(5-tert-butyl-4-{[4-hydroxy-2-oxo-6-(2-phenylethyl)-6-(propan-2-yl)-5,6-dihydro-2H-pyran-3-yl]sulfanyl}-2-methylphenyl)-1-methyl-1H-imidazole-2-sulfonamide]
IC50 [1]: 1.9 nM

Cc1cc(SC2C(=O)CC(CCc3ccccc3)(C(C)C)OC2=O)c(C(C)(C)C)cc1NS(=O)(=O)c1ccc(C#N)cc1 (configuration not stated) [N-(5-tert-butyl-4-{[4-hydroxy-2-oxo-6-(2-phenylethyl)-6-(propan-2-yl)-5,6-dihydro-2H-pyran-3-yl]sulfanyl}-2-methylphenyl)-4-cyanobenzene-1-sulfonamide]
IC50 ([1]; pH 6.2, 37 °C): 9.1 nM

Cc1cc(SC2C(=O)CC(CCc3ccccc3)(C(C)C)OC2=O)c(C(C)(C)C)cc1NS(=O)(=O)c1ccc(C(F)(F)F)cn1 (configuration not stated) [N-(5-tert-butyl-4-{[4-hydroxy-2-oxo-6-(2-phenylethyl)-6-(propan-2-yl)-5,6-dihydro-2H-pyran-3-yl]sulfanyl}-2-methylphenyl)-5-(trifluoromethyl)pyridine-2-sulfonamide]
Ki [1]: 1.04 nM

Cc1cc(SC2C(=O)C[C@](CCc3ccccc3)(C(C)C)OC2=O)c(C(C)(C)C)cc1NS(=O)(=O)c1ccc(C(F)(F)F)cn1 (stereo partly drawn) [N-(5-tert-butyl-4-{[(6R)-4-hydroxy-2-oxo-6-(2-phenylethyl)-6-(propan-2-yl)-5,6-dihydro-2H-pyran-3-yl]sulfanyl}-2-methylphenyl)-5-(trifluoromethyl)pyridine-2-sulfonamide]
Ki [1]: 6.4 nM

Cc1cc(SC2C(=O)C[C@](CCc3ccc(O)cc3)(C(C)C)OC2=O)c(C(C)(C)C)cc1NS(=O)(=O)c1ccc(C(F)(F)F)cn1 (stereo partly drawn) [N-(5-tert-butyl-4-{[(6R)-4-hydroxy-6-[2-(4-hydroxyphenyl)ethyl]-2-oxo-6-(propan-2-yl)-5,6-dihydro-2H-pyran-3-yl]sulfanyl}-2-methylphenyl)-5-(trifluoromethyl)pyridine-2-sulfonamide]
Ki [1]: 9.54 nM

Cc1cc(SC2C(=O)CC(C)(CCc3ccc(O)cc3)OC2=O)c(C(C)(C)C)cc1NS(=O)(=O)c1nccn1C (configuration not stated) [N-[5-tert-butyl-4-({4-hydroxy-6-[2-(4-hydroxyphenyl)ethyl]-6-methyl-2-oxo-5,6-dihydro-2H-pyran-3-yl}sulfanyl)-2-methylphenyl]-1-methyl-1H-imidazole-2-sulfonamide]
IC50 ([1]; pH 6.2, 37 °C): 1.9 nM

Cc1cc(SC2C(=O)CC(C)(CCc3ccc(O)cc3)OC2=O)c(C(C)(C)C)cc1NS(=O)(=O)c1cccc(-c2cccs2)c1 (configuration not stated) [N-[5-tert-butyl-4-({4-hydroxy-6-[2-(4-hydroxyphenyl)ethyl]-6-methyl-2-oxo-5,6-dihydro-2H-pyran-3-yl}sulfanyl)-2-methylphenyl]-3-(thiophen-2-yl)benzene-1-sulfonamide]
IC50 ([1]; pH 6.2, 37 °C): 6.3 nM
